Data taken from patent publication US20060234914A1, “Fragments of proinsulin c-peptide” (Creative Peptides Sweden AB, priority 2002, published 2006).
Like-named read-outs stand apart in the source and are kept apart here.

Experiments:
[1] = system: human renal tubular cells; experiment: Intracellular Ca2+ concentration ([Ca2+]i) measurements as an assay of C-peptide activity; assay type: cell-based; conditions: for [Ca2+]i response after preincubation of the cells with pertussis toxin: pertussis toxin 1 μg/ml for 4 h at 37° C.
Source text: Based on studies showing a C-peptide effect on the intracellular Ca^2+ concentration ([Ca^2+]) (Ohtomo et al., supra, Kunt et al., supra), an assay has been developed, for C-peptide activity, based on measuring [Ca^2+]i changes in human renal tubular cells, namely a rise in [Ca^2+]i.
The following peptides were used, all prepared by solid-phase peptide synthesis and purchased from Sigma (Genosys (Cambridge, UK): human C-peptide, scrambled C-peptide (with the same residues, but randomly ordered des (27-31) C-peptide and C-terminal pentapeptide (EGSLQ).
Human renal tubular cells were obtained from the outer cortex of renal tissues obtained from non-diabetic patients undergoing elective nephrectomy for renal cell carcinomas. The collection of the tissue samples during suegery was approved by the Ethics Committee of the Karolinska Hospital. The cells were cultured in RPMI 1640 (Life Technologies, Grand Island, N.Y.) supplemented with 10% fetal calf serum, 2 mM L-glutamine, 10 mM HEPES, benzylpenicillin (100 U/ml), and streptbmycin (100 U/ml). Cells were grown to confluency on cover slips in a six-well plate and starved in serum-free medium for 4 hours before experiments.
Changes in [Ca^2+1]1 were measured on cells attached to cover slips. The cells were loaded with 2 μM of the fluorescent Ca^2+ indicator fura-2/AM at 37° C. for 30 minutes in a buffer containing 115 mM NaCl, 24 mM NaHCO3, 4.7 mM KCl, 1.26 mM CaCl2 1.2 mM KH2PO4, 1.2 mM MgSOZ 11.1 mM glucose, 20 mM HEPES, and 5 mg/ml bovine serum albumin, pH 7.4. Cover slips were mounted as the bottom of an open chamber placed on a thermostatically controlled stage of an inverted epifluorescence microscope (Zeiss, Axiovert 135). The microscope was connected to a SPEX fluorolog-2 system for dual-wave-length excitation fluorimetry. The emissions of the two excitation wavelengths of 340 and 380 nm were used to calculate the fluorescence ratio (F340/F380) reflecting changes in [Ca^2+]i, [17]. Treatments during recordings were made using a perifusion system attached to the chamber. Changes in [Ca^2+]i were measured using an attached CCD camera that allowed recording of individual cells in the cell clusters. The influence of pertussis toxin was studied by preincubation of the cells with the toxin at 1 μg/ml for 4 h at 37° C.
In these peptides each or all of Glu 3, Glu 11 and Glu 27 of human C-peptide were replaced by Ala. In addition, all of Glu 3, Glu 11 and Glu 27 were replaced by Gln. The peptides were tested for C-peptide activity by monitoring for rises in [Ca^2+]i as described in Example 1.

[2] = system: p44/42 MAP kinase (Erk1 and Erk2); experiment: Western blot of p44/42 MAP kinase phosphorylation in Swiss 3T3 cells; assay type: cell-based, rat; conditions: Example 6, 1 nM peptide, 3 minutes at 37° C., FIG. 3
Description: Swiss 3T3 cells, a […] fibroblast cell line, passage 6, were seeded 96 h before use in three 6-well plates. After 96 h, the cells in each well were confluent. The cultivation medium was Dulbecco's Modified Eagle Medium (DMEM) without sodium pyruvate, with pyridoxineHCl, 4500 mg/l glucose, 50 μg/ml gentamicin, and 10% foetal calf serum (FCS).
The cells were washed thoroughly with 37° C. starvation medium (cultivation medium as above without addition of FCS) and then kept in 1 ml 37° C. starvation medium for 2.5 h. 15 min. prior to the experiment, the buffer was changed to 37° C. Hanks' buffer (Gibco), and then kept in 37° C. […]
Protein content was determined in the collected supernatants using a BCA Protein Assay Reagent Kit (Pierce), including albumin standards. […]
The PVDF membranes were incubated with primary antibodies against (I) Phosphop44/42 MAP Kinase (Thr202/Tyr204) and (II) p44/42 MAP Kinase, respectively. […] The membranes were rinsed with TBS/T, and HRP activity on the membranes was detected with the SuperSignal® West Pico Chemiluminescent Substrate kit (Pierce).
Photographic films were exposed to the membranes, and bands of appropriate sizes on the resulting films were quantitated by densitometry, using a GS-710 Imaging Densitometer (Bio-Rad) and Quantity One software (Bio-Rad). […]

| Substance | changes in [Ca2+]i (F340/F380 ratio) [1] | [Ca2+]i response after preincubation of the cells with pertussis toxin [1] | capacity of phosphorylating p44/42 MAP kinase [2] | changes in [Ca2+]i (F340/F380 ratio) ([1]; human renal tubular cells loaded with fura-2/AM, peptide 5 and 10 nM) |
| --- | --- | --- | --- | --- |
| EGSLQ [C-terminal pentapeptide] | Results similar to those with human C-peptide | eliminated |  |  |
| EAEALQAAQAELGGGPGAGSLQPLALEGSLQ (EAEALQAAQAELGGGPGAGSLQPLALEGSLQ) [Alanine-rich C-peptide] |  |  | did not decrease the biological activity |  |
| EAEPLQPPQPELGGGPGAGSLQPLALEGSLQ [Proline-rich C-peptide] |  |  | decrease in phosphorylating capacity |  |
| EAEDLQVGQVELGGGPGAGSLQPLALEGSLQ [human C-peptide] |  | eliminated |  | effect of 5 nM human C-peptide may be seen |
